Measured values reported in patent US10487091B2, “Activators of autophagic flux and phospholipase D and clearance of protein aggregates including tau and treatment of proteinopathies” (THE TRUSTEES OF COLUMBIA UNIVERSITY IN THE CITY OF NEW YORK, priority 2015, dated 2019).
Where two headings read alike, the source gives them in different places.

How the values were obtained:
[1] = Cytotoxicity LC50 (XTT assay for cell viability); format: cell-based; conditions: human, transfected HEK 293 cells that express mKate2-tagged Tau;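 further: cells carry doxycycline-repressible Tau, induced by withdrawing doxycycline for 72 h before compound exposure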
Tau/aggregate = Tau/aggregate inhibition in HEK 293 cells expressing mKate2-tagged Tau; format: cell-based, Human; conditions: for % Inhibition Tau/aggregate: @ 2 μM; for inhibition at 1 µM: Homo sapiens, HEK293
Method: (§1) 1) HEK cells with tet-regulated expression of mKate2 tagged Tau were grown in DMEM medium (Dulbecco's Modified Eagle's Medium) containing 0.5 μg/mL doxycycline (Dox)(MP-Bio#198955), after 3-5 days Dox was removed by washing the cells twice with sterile phosphate buffered saline (PBS; Invitrogen#14190-144), cells were left in DMEM without Dox for 72 hours (to further clear remaining Dox in cells).
(§2) The test compounds (along with CytoID™ dye and Hoechst stain) were added to the cells and incubated for 3 hours. Reference compounds were also used in each plate, Rapamycin was used for autophagy induction and chloroquine was used for lysosomal inhibition. After 3 hours test compound was aspirated off and kept. Cells were then washed and read using a fluorescence plate reader. Hoescht, Cyto-ID™ and mKate2 were measured using 3 distinct wavelengths on the plate reader. The Hoescht measurement allowed normalisation of results across wells. After reading, test compound was re-added and the cells are left for a further 21 hours. At the 24 hour time point cells were once again washed and plates read using the fluorescence plate reader.
(§3) Proteostat™ assay was used to detect aggresomes via measurement of p62. Aggresomes are inclusion bodies that form when the ubiquitin-proteasome machinery is overwhelmed with aggregation-prone proteins. Typically, an aggresome forms in response to some cellular stress, such as hyperthermia, viral infection, or exposure to reactive oxygen species. Aggresomes may provide a cytoprotective function by sequestering the toxic, aggregated proteins and may also facilitate their ultimate elimination from cells by autophagy. Following the final plate read described in the Cyto-ID™ assay described above, Proteostat™ detection reagent was added to every well and the plate was incubated for 15 minutes. Following this incubation, the plate was read by fluorescence plate reader at the specified wavelength. After this plate read, the cells were fixed by incubating with warm paraformaldehyde for 8 minutes. The fixed cells were then read by plate reader as before.
Western blot assays were performed to determine protein changes in Tau and p62. Cells were cultured as above and incubated with test compounds for 24 h. Following test compound incubation, the test compound was aspirated off and cells were washed before harvesting. Cells were spun at a low speed and supernatant was aspirated to leave the cell pellet. The cell pellet was then homogenized in buffer, centrifuged at high speed, and the supernatant aspirated and further separated into total fraction and aggregate fraction allowing quantification of soluble and insoluble proteins. Western blots were run on the samples, gels transferred to nitrocellulose and incubated with antibodies for Tau and p62. After incubation with secondary antibodies for detection, the bands of protein were quantified by chemiluminescence.

phospholipase D (PLD) = experiment: PLD assay (conversion of phospholipids to phosphatidylethanols in presence of ethanol, LC/MS); format: cell-based, mice; set-up: key: NC—no change; conditions: PLD activation, fold; 24 hours incubation
Method: Cells were incubated with test compound for 24 hours. 25 minutes prior to harvest at 24 hours, 3% ethanol solution was added to the wells to catalyze cleavage of the phospholipid. Cells were then placed on ice, washed and harvested. The harvested cells were centrifuged and the supernatant was aspirated and the pellet kept. The pellet was resuspended and chloroform/methanol lipid extraction was performed. The sample was centrifuged and the organic layer was separated, dried under nitrogen and stored at −80° C. On the day of analysis, samples were resuspended and analysed by LC/MS. All phosphatidylethanol species (PEtOH32-40:0-6:16/18:0/1) were combined together and represented as total lipid content (all lipid species).
The assay was run in e18 primary cortical neurons from PLD1 or PLD2 KO mice cultured for 14 days. Alternatively, the assay can be run in the cells described above in the presence of excess PLD1 or PLD2 inhibitor to preclude that particular action from contributing to the effect of the drug.
4) On the day of experiment, cells were washed in warmed HBSS twice before media containing test compound (n=3 per compound per dose), inhibitor (355 nM ML298 or 50 nM VU0150669), or vehicle are added to the wells (1.5 mL in 6 well, 600 μL in 12 well). Plates were incubated for 24 hours at 37° C. with 5% CO2.
5) 25 minutes prior to harvest, a 165 μL of a 3% ethanol solution was added to each well.
PLD activation converts phospholipids to phosphatidylethanols in the presence of ethanol. […] FIPI is a non-competitive inhibitor of PLD activity and was used as a negative control.

Autophagy Markers = experiment: Autophagy markers (Cyto-ID assay) in HEK 293 cells; format: cell-based, Human
Method: The dye used in the kit prevents its accumulation within lysosomes, but enables labelling of vacuoles associated with the autophagy pathway using the LC3 biomarker.
as §2
2) Test samples were prepared in warm FluoroBrite™ DMEM and with 10% FBS and 1% NEAA (FB-DMEM). Rapamycin 200 nM (Enzo #BML-A275-0025) was used for autophagy induction and […] chloroquine was used for lysosomal inhibition (bafilomycin or similar compounds were not used as they give a false negative result in the assay). Dimethyl Sulfoxide 1:1000 (DMSO; Fisher #BP231-100) was used as control. Autophagosome marker Cyto ID™ (1:500; Enzo #ENZ-51031-k200) and Hoechst (1:200) was added to these test sample preparations before treating the cells.
7) At 24 hours post reaction all medium was aspirated and the plate was washed 3 times with warm FB-DMEM, and read again for Hoescht (Ex=355 nm Em=446 nm), CytoID™ (Ex=463 nm; Em=534 nm) and mKate2 (Ex=575 nm; Em=630 nm) in 80 μl of FB-DMEM.

aggregates (Proteostat) = experiment: Proteostat protein aggregation assay EC50; format: cell-based; conditions: Homo sapiens; 50% reduction of Proteostat levels (fluorescent marker of aggregates)
Description: as §3
8) Detection solution was prepared by adding 10 μl Proteostat™ detection reagent (ENZ-51023-KP002) and 200 μL of 10× assay buffer into 1790 μL water and mixing well.
9) 20 μL was added per well (each well had 80 μl of Fluorobrite™ media with no FBS) and incubated in the dark for 15 min at room temperature.
10) Fluorescence for Proteostat™ (Ex=550 nm; Em=600 nm) was then read.

mKate2 tagged Tau = experiment: Tau-mKate2 fluorescence EC50; format: cell-based; conditions: Homo sapiens; 50% reduction of mKate2 fluorescence (tau tag)
Method: as §1
as §2, with “After 3 hours test compound was aspirated off and kept.” left out, “The Hoescht measurement allowed normalisation of results across wells.” left out
5) Treatment plate was then washed quickly 3 times with warm FB-DMEM (100 μL/well). […] At this point, the plate was ready for reading. See details in Reading Plate section. Hoescht was read at Excitation wavelength (Ex)=355 nm & Emission wavelength (Em)=446 nm. mKate2 was read at Ex=575 nm & Em=630 nm. Cyto-ID™ was read at Ex=463 nm & Em=534 nm. […]

Row | Compound | CC50 ([1]; read-out: Cyto-toxixity LC50) [µM] | % Inhibition Tau/aggregate (Tau/aggregate) | PLD (phospholipase D (PLD)) | % Increase Autophagy Markers (Autophagy Markers; @ 2 μM) | inhibition at 1 µM (Tau/aggregate) [%] | % Increase Autophagy Markers (Autophagy Markers) [%] | CC50 ([1]; XTT assay, 200 = upper concentration limit tested, read-out: LC50 (the source's name)) [µM] | EC50 (aggregates (Proteostat)) [nM] | EC50 (mKate2 tagged Tau) [nM]
1 | Cn1nnnc1Sc1ncnc2scnc12 [WHYKD1] | > 100 | No Effect @ 2 μM | NC | No Effect @ 2 μM |  |  |  |  | 
2 | Oc1ccc(CCNc2ncnc3scnc23)cc1 [WHYKD2] | > 100 | No Effect @ 2 μM |  | No Effect @ 2 μM |  |  |  |  | 
3 | Cn1nnnc1Sc1ncnc2ccc(Br)cc12 [WHYKD3] | > 100 | No Effect @ 2 μM | NC | No Effect @ 2 μM |  |  |  |  | 
4 | Cn1nnnc1Sc1ncnc2ccc(-c3cccc4ccccc34)cc12 [WHYKD4] | > 100 | No Effect @ 2 μM |  | No Effect @ 2 μM |  |  |  |  | 
5 | Cn1nnnc1Sc1ncnc2ccc(F)cc12 [WHYKD5] | > 100 |  | 1.7X |  | 35 | 20 |  |  | 
6 | Cn1nnnc1Sc1ncnc2ccccc12 [WHYKD6] | > 100 | No Effect @ 2 μM |  | No Effect @ 2 μM |  |  |  |  | 
7 | Cn1nnnc1Sc1ncnc2ccc(Cl)cc12 [WHYKD7] | > 100 | No Effect @ 2 μM |  | No Effect @ 2 μM |  |  |  |  | 
8 | Fc1ccc2ncnc(Cl)c2c1 [WHYKD9] | > 100 | No Effect @ 2 μM |  | No Effect @ 2 μM |  |  |  |  | 
9 | Cn1nnnc1Sc1ccnc2ccccc12 [WHYKD10] | > 100 | No Effect @ 2 μM |  | No Effect @ 2 μM |  |  |  |  | 
10 | Cn1nnnc1Sc1ccnc2ccc(F)cc12 [WHYKD11] | > 100 | No Effect @ 2 μM |  | No Effect @ 2 μM |  |  |  |  | 
11 | Fc1ccc2ncnc(SC3CCCCC3)c2c1 [WHYKD12] | > 100 |  | 3.4 X |  | 60 | 40 |  |  | 
12 | CC1(Sc2ncnc3ccc(F)cc23)CCC2CC1C2(C)C (stereo not drawn) [WHYKD13] | > 100 | No Effect @ 2 μM |  | No Effect @ 2 μM |  |  |  |  | 
13 | Fc1ccc2ncnc(SC34CC5CC(CC(C5)C3)C4)c2c1 [WHYKD14] | > 100 | No Effect @ 2 μM |  | No Effect @ 2 μM |  |  |  |  | 
14 | Fc1ccc2ncnc(SC3CCCC3)c2c1 [WHYKD15] | > 100 |  | 3.6 X |  | 65 | 40 |  |  | 
15 | Fc1ccc2ncnc(SC3CC4CCC3C4)c2c1 (stereo not drawn) [WHYKD16] | > 100 | No Effect @ 2 μM |  | No Effect @ 2 μM |  |  |  |  | 
16 | COC(=O)CC12CC3CC(C1)CC(Sc1ncnc4ccc(F)cc14)(C3)C2 [WHYKD18] | > 100 | No Effect @ 2 μM |  | No Effect @ 2 μM |  |  |  |  | 
17 | Fc1ccc2ncnc(SC3CCOCC3)c2c1 [WHYKD19] | > 100 |  | 3.5 X |  | 55 | 35 |  |  | 
18 | Fc1ccc2ncnc(SC3Cc4ccccc4C3)c2c1 [WHYKD20] | > 100 | No Effect @ 2 μM |  | No Effect @ 2 μM |  |  |  |  | 
19 | Oc1ccc(CCNc2ncnc3ncsc23)cc1 [WHYKD21] | > 100 | No Effect @ 2 μM |  | No Effect @ 2 μM |  |  |  |  | 
20 | Oc1ccc(CCNc2ncnc3sccc23)cc1 [WHYKD22] | > 100 | No Effect @ 2 μM |  | No Effect @ 2 μM |  |  |  |  | 
21 | Oc1ccc(CCNc2ncnc3ccsc23)cc1 [WHYKD23] | > 100 | No Effect @ 2 μM |  | No Effect @ 2 μM |  |  |  |  | 
22 | O=c1[nH]cnc2ccc(F)cc12 [WHYKD24] | > 100 |  |  |  | 30 | 15 |  |  | 
23 | Ic1ccc2ncnc(SC3CCCC3)c2c1 [WHYKD30] |  |  |  |  |  |  | > 200 | 2510 | 1110
